Measured values: US11713335B2, “Aminocoumarin compounds and methods of their use” (President and Fellows of Harvard College, priority 2018, dated 2023)
Converted amounts (≈) assume the structure as drawn. Where two headings read alike, the source gives them in different places.

Columns and labels:
Type in all cases: cell-based
[1] = system: E. cloacae 13047; experiment: Minimal inhibitory concentration, E. cloacae 13047; conditions: read-out: MIC (μM) E. cloacae 13047
Description: (§1) General Procedure for Determination of Minimal Inhibitory Concentrations
(§2) Overnight cultures (5 mL) of bacterial strains were grown in LB media or TSA media (for S. aureus) at 37° C. and with shaking at 220 rpm until saturation. The overnight culture was diluted serially 1:100 (50 μL in 5 mL sterile media) and then 1:100 (250 μL in 25 mL sterile media). The 25 mL of diluted culture was then dispensed to a sterile 96 well plate (Corning #3370). 198 μL of culture were dispensed into row A and 100 μL of this culture were dispensed into rows B-H. Aminocoumarin compound (DMSO stock) were added to the first row and then the row was mixed by pipetting. 100 μL of culture from row A were transferred to row B and the serial dilution continued until the final 100 μL from row H were discarded. The plate was incubated without shaking in a 37° C. for 16 hours and then read by visible light spectrophotometer (Molecular Devices) at 600 nm. The minimal inhibitory concentration (MIC) was determined as the lowest concentration of compound concentration that inhibited the growth of bacteria.
(§3) The compounds of the invention were assessed for activities against the pathogens S. aureus RN4220 and MW2, E. cloacae 13047, A. baumannii 19606, K. pneumoniae 700721, E. coli MC4100, 25922. All activities are reported in micromolar (uM) and are 16 hour minimal inhibitory concentrations at 37° C. The assay is detailed in Example 11 and is titled “General Procedure for Determination of Minimal Inhibitory Concentrations.”

[2] = system: A. baumannii 19606; experiment: Minimal inhibitory concentration, A. baumannii 19606; conditions: read-out: MIC (μM) A. baumannii 19606
Description: as §1, §2, §3

[3] = system: K. pneumoniae 700721; experiment: Minimal inhibitory concentration, K. pneumoniae 700721; conditions: read-out: MIC (μM) K. pneumoniae 700721
Description: as §1, §2, §3

[4] = system: E. coli MC4100; experiment: Minimal inhibitory concentration, E. coli MC4100; conditions: read-out: MIC (μM) E. coli MC4100 ara+
Description: as §1, §2, §3

[5] = system: E. coli 25922; experiment: Minimal inhibitory concentration, E. coli 25922; conditions: read-out: MIC (μM) E. coli 25922
Description: as §1, §2, §3

[6] = system: S. aureus RN4220; experiment: Minimal inhibitory concentration, S. aureus RN4220; conditions: read-out: MIC (μM) S. aureus RN4220
Description: as §1, §2, §3

[7] = system: S. aureus MW2; experiment: Minimal inhibitory concentration, S. aureus MW2; conditions: read-out: MIC (μM) S. aureus MW2 (MRSA)
Description: as §1, §2, §3

[8] = 16 hour minimal inhibitory concentration at 37° C.
[9] = Enterobacter cloacae, 13047, 16 hour minimal inhibitory concentration at 37° C.
[10] = Klebsiella pneumoniae, 700721, 16 hour minimal inhibitory concentration at 37° C.
[11] = Staphylococcus aureus, RN4220, 16 h, 16 hour minimal inhibitory concentration at 37° C.
[12] = Staphylococcus aureus, MRSA, 16 h
[13] = Acinetobacter baumannii, 19606, 16 h, 16 hour minimal inhibitory concentration at 37° C.
[14] = Escherichia coli, MC4100, 16 h, 16 hour minimal inhibitory concentration at 37° C.
[15] = Escherichia coli, 25922, 16 h, 16 hour minimal inhibitory concentration at 37° C.
[16] = Staphylococcus aureus, MRSA, 16 h, 16 hour minimal inhibitory concentration at 37° C.

Row | SMILES | MIC [1, 8] [µM] | MIC [2, 8] [µM] | MIC [3, 8] [µM] | MIC [4, 8] [µM] | MIC [5, 8] [µM] | MIC [6, 8] [µM] | MIC [7, 8] [µM] | MIC [1, 9] [µM] | MIC [3, 10] [µM] | MIC [6, 11] [µM] | other results
1 | CO[C@@H]1[C@@H](OC(N)=O)[C@@H](O)[C@H](Oc2ccc3c(O)c(NC(=O)C45CC6CC(CC(F)(C6)C4)C5)c(=O)oc3c2C)OC1(C)C [Compound 100] | >100 | >50 | >100 | >200 | >200 | 83 (≈ 50.2 µg/mL) | 41 (≈ 24.8 µg/mL) | – | – | – | –
2 | CO[C@@H]1[C@@H](OC(N)=O)[C@@H](O)[C@H](Oc2ccc3c(O)c(NC(=O)c4ccc(F)c(CC=C(C)C)c4)c(=O)oc3c2C)OC1(C)C [Compound 101] | – | – | – | – | – | – | – | > 100 | 81 (≈ 49.8 µg/mL) | 2 (≈ 1.23 µg/mL) | MIC ([2]; Acinetobacter baumannii, 19606, 16 hour minimal inhibitory concentration at 37° C.): 41 µM (≈ 25.2 µg/mL); MIC ([4]; Escherichia coli, MC4100, 16 hour minimal inhibitory concentration at 37° C.): 20 µM (≈ 12.3 µg/mL); MIC ([5]; Escherichia coli, 25922, 16 hour minimal inhibitory concentration at 37° C.): 20 µM (≈ 12.3 µg/mL); MIC [7, 12]: 1 µM (≈ 0.615 µg/mL)
3 | CO[C@@H]1[C@@H](OC(N)=O)[C@@H](O)[C@H](Oc2ccc3c(O)c(NC(C)=O)c(=O)oc3c2C)OC1(C)C [Compound 102] | >100 | >50 | >100 | >200 | >200 | >100 | >100 | – | – | – | –
4 | COc1cccc(-c2cccc(C(=O)Nc3c(O)c4ccc(O[C@@H]5OC(C)(C)[C@H](OC)[C@@H](OC(N)=O)[C@H]5O)c(C)c4oc3=O)c2)c1 [Compound 103] | >100 | 9 (≈ 5.71 µg/mL) | >100 | >200 | >200 | 36 (≈ 22.8 µg/mL) | 36 (≈ 22.8 µg/mL) | – | – | – | –
5 | CCNC(=O)O[C@H]1[C@H](Oc2ccc3c(O)c(NC(=O)c4ccc(O)c(CC=C(C)C)c4)c(=O)oc3c2C)OC(C)(C)[C@H](OC)[C@H]1O [Compound 104] | >100 | 10 (≈ 6.41 µg/mL) | >100 | >200 | 156 (≈ 99.9 µg/mL) | 2 (≈ 1.28 µg/mL) | 2 (≈ 1.28 µg/mL) | – | – | – | –
6 | CO[C@@H]1[C@@H](O)[C@@H](OC(=O)NC(C)C)[C@H](Oc2ccc3c(O)c(NC(=O)c4ccc(O)c(CC=C(C)C)c4)c(=O)oc3c2C)OC1(C)C [Compound 105] | >100 | >50 | >100 | >200 | >200 | >100 | >100 | – | – | – | –
7 | CO[C@@H]1[C@@H](O)[C@@H](OC(=O)NC(C)(C)C)[C@H](Oc2ccc3c(O)c(NC(=O)c4ccc(O)c(CC=C(C)C)c4)c(=O)oc3c2C)OC1(C)C [Compound 106] | >100 | >50 | >100 | >200 | >200 | >100 | >100 | – | – | – | –
8 | CO[C@@H]1[C@@H](O)[C@@H](OC(=O)NC2CCCC2)[C@H](Oc2ccc3c(O)c(NC(=O)c4ccc(O)c(CC=C(C)C)c4)c(=O)oc3c2C)OC1(C)C [Compound 107] | >100 | 9 (≈ 6.13 µg/mL) | >100 | >200 | >200 | 73 (≈ 49.7 µg/mL) | 73 (≈ 49.7 µg/mL) | – | – | – | –
9 | CO[C@@H]1[C@@H](OC(=O)NC2CCCC2)[C@@H](O)[C@H](Oc2ccc3c(O)c(NC(=O)c4ccc(O)c(CC=C(C)C)c4)c(=O)oc3c2C)OC1(C)C [Compound 108] | >100 | >50 | >100 | >200 | >200 | >100 | >100 | – | – | – | –
10 | CCCNC(=O)O[C@H]1[C@H](Oc2ccc3c(O)c(NC(=O)c4ccc(O)c(CC=C(C)C)c4)c(=O)oc3c2C)OC(C)(C)[C@H](OC)[C@H]1O [Compound 109] | >100 | 10 (≈ 6.55 µg/mL) | >100 | >200 | >200 | 1.53 (≈ 1 µg/mL) | 1.53 (≈ 1 µg/mL) | – | – | – | –
11 | CO[C@@H]1[C@@H](O)[C@@H](OC(=O)NC2CCCCC2)[C@H](Oc2ccc3c(O)c(NC(=O)c4ccc(O)c(CC=C(C)C)c4)c(=O)oc3c2C)OC1(C)C [Compound 110] | >100 | >50 | >100 | >200 | >200 | >100 | >100 | – | – | – | –
12 | CO[C@@H]1[C@@H](OC(=O)c2ccc(C)[nH]2)[C@@H](O)[C@H](Oc2ccc3c(O)c(NC(=O)c4ccc(O)c(CC=C(C)C)c4)c(=O)oc3c2C)OC1(C)C [Compound 112] | – | – | – | – | – | – | – | – | – | – | MIC ([1]; Enterobacter cloacae, 13047, 16 h): > 100 µM; MIC ([2]; Acinetobacter baumannii, 19606, 16 h): < 0.11 µM; MIC ([3]; Klebsiella pneumoniae, 700721, 16 h): 37 µM (≈ 25 µg/mL); MIC ([4]; Escherichia coli, MC4100, 16 h): 74 µM (≈ 50.1 µg/mL); MIC ([5]; Escherichia coli, 25922, 16 h): 18.5 µM (≈ 12.5 µg/mL); MIC ([6]; Staphylococcus aureus, RN4220, 16 h): < 0.01 µM; MIC [7, 12]: < 0.01 µM
13 | CO[C@@H]1[C@@H](O)[C@@H](OC(=O)c2ccc[nH]2)[C@H](Oc2ccc3c(O)c(NC(=O)c4ccc(O)c(CC=C(C)C)c4)c(=O)oc3c2C)OC1(C)C [Compound 113] | >100 | 2 (≈ 1.33 µg/mL) | >100 | >200 | >200 | 0.5 (≈ 0.331 µg/mL) | 0.24 (≈ 0.159 µg/mL) | – | – | – | –
14 | CO[C@@H]1[C@@H](O)[C@@H](OC(=O)c2cccn2C)[C@H](Oc2ccc3c(O)c(NC(=O)c4ccc(O)c(CC=C(C)C)c4)c(=O)oc3c2C)OC1(C)C [Compound 114] | >100 | >50 | >100 | >200 | >200 | 74 (≈ 50.1 µg/mL) | 74 (≈ 50.1 µg/mL) | – | – | – | –
15 | CO[C@@H]1[C@@H](OC(N)=O)[C@@H](O)[C@H](Oc2ccc3c(O)c(NC(=O)c4cc(C)oc4C)c(=O)oc3c2C)OC1(C)C [Compound 200] | – | – | – | – | – | – | – | > 100 | > 100 | 91 (≈ 49.7 µg/mL) | MIC [2, 13]: > 50 µM; MIC [4, 14]: > 200 µM; MIC [5, 15]: > 200 µM; MIC [7, 16]: 91 µM (≈ 49.7 µg/mL)
16 | CO[C@@H]1[C@@H](OC(N)=O)[C@@H](O)[C@H](Oc2ccc3c(O)c(NC(=O)c4cccc(-c5cc[nH]n5)c4)c(=O)oc3c2C)OC1(C)C [Compound 201] | – | – | – | – | – | – | – | > 100 | > 100 | 42 (≈ 25 µg/mL) | MIC [2, 13]: > 50 µM; MIC [4, 14]: > 200 µM; MIC [5, 15]: > 200 µM; MIC [7, 16]: 42 µM (≈ 25 µg/mL)
17 | CO[C@@H]1[C@@H](OC(N)=O)[C@@H](O)[C@H](Oc2ccc3c(O)c(NS(=O)(=O)c4cccc(-c5ccccc5)c4)c(=O)oc3c2C)OC1(C)C [Compound 202] | – | – | – | – | – | – | – | > 100 | > 100 | > 100 | MIC [2, 13]: > 50 µM; MIC [4, 14]: > 200 µM; MIC [5, 15]: > 200 µM; MIC [7, 16]: > 100 µM
18 | CO[C@@H]1[C@@H](OC(N)=O)[C@@H](O)[C@H](Oc2ccc3c(O)c(NC(=O)c4ccc(N=[N+]=[N-])cc4)c(=O)oc3c2C)OC1(C)C [Compound 224] | – | – | – | – | – | – | – | > 100 | > 100 | 88 (≈ 50.1 µg/mL) | MIC [2, 13]: > 50 µM; MIC [5, 15]: > 200 µM; MIC [7, 16]: > 100 µM
19 | CO[C@@H]1[C@@H](OC(N)=O)[C@@H](O)[C@H](Oc2ccc3c(O)c(NC(=O)c4ccc(I)cc4)c(=O)oc3c2C)OC1(C)C [Compound 225] | – | – | – | – | – | – | – | > 100 | > 100 | 38 (≈ 24.9 µg/mL) | MIC [2, 13]: > 50 µM; MIC [5, 15]: > 200 µM; MIC [7, 16]: 38 µM (≈ 24.9 µg/mL)
